Columns and labels:
calf thymus DNA [1] = assay: Fluorescence emission spectra in the absence and presence of calf thymus DNA in buffer solution; type: binding; settings: dye 1 μM, calf thymus DNA 100 μM
Method: (§1) FIG. 1 is the comparison of fluorescence emission spectra of compound A with commercially available dye EB in the absence and presence of calf thymus DNA respectively in pH 7.36, 10 mM Tris-HCl buffer. The abscissa is wavelength (nm) and the ordinate is the relative fluorescence intensity. The equipments used are a UV-Vis spectrophotometer (Hp8453) and a spectrofluorophotometer (FP-6500). The concentrations of compound A, EB and calf thymus DNA are 1 μM, 1 μM and 100 μM respectively.
as §1, with “FIG. 2” for “FIG. 1”, “compound B” for “compound A”, “pH 7.4,” for “pH 7.36,”, “compound B,” for “compound A,”, “100 μM,” for “100 μM”
FIG. 3 is the comparison of fluorescence emission spectra of compound C with commercially available dye EB in the absence and presence of calf thymus DNA respectively in pH 7.24, 10 mM Tris-HCl buffer. The abscissa is wavelength (nm) and the ordinate is the relative fluorescence intensity. […]
Determinations of the fluorescence emission spectra of compound A and commercially available dye EB in the absence and presence of calf thymus DNA respectively in buffer solution
Solutions of compound A in DMSO and EB in water are separately prepared with the concentrations of 1 mM. 3 μL of each solution is diluted with 10 mM Tris-HCl buffer solution (pH 7.36) to 3 mL in a cuvette to determine its fluorescence intensity. Solution of calf thymus DNA in water is prepared, whose concentration is determined as 1.5 mM by the adsorption at 260 nm in spectrophotometry (using the molar absorption coefficients of ε260 nm=6600 M^−1 cm^−1). […]
Determinations of the fluorescence emission spectra of compound B and commercially available dye EB in the absence and presence of calf thymus DNA respectively in buffer solution […]

calf thymus DNA [2] = assay: Fluorescence intensity before and after addition of calf thymus DNA; type: binding; settings: pH 7.0, 10 mM Tris-HCl buffer; dye 1 μM; calf thymus DNA 40 μg/mL
Method: (§2) The ordinate is the fluorescence increasing fold. The equipment used is a spectrofluorophotometer (FP-6500). […] The concentrations of calf thymus DNA and bovine serum albumin are both 40 μg/mL.
(§3) Finally each mixture of dye and BSA solution is diluted with pH 7.0, 10 mM Tris-HCl buffer solution to 3 mL and the fluorescence emission spectra are determined respectively after stabilization. […] Finally each mixture of dye and calf thymus DNA solution is diluted with pH 7.0, 10 mM Tris-HCl buffer solution to 3 mL and the fluorescence emission spectra are determined respectively after stabilization. […] The equipment used is a spectrofluorophotometer (FP-6500).

bovine serum albumin = bovine serum albumin (Bos taurus, UniProt P02769); assay: Fluorescence intensity before and after addition of bovine serum albumin; type: binding; settings: pH 7.0, 10 mM Tris-HCl buffer; dye 1 μM; bovine serum albumin 40 μg/mL
bovine serum albumin, sequence (P02769 25-607): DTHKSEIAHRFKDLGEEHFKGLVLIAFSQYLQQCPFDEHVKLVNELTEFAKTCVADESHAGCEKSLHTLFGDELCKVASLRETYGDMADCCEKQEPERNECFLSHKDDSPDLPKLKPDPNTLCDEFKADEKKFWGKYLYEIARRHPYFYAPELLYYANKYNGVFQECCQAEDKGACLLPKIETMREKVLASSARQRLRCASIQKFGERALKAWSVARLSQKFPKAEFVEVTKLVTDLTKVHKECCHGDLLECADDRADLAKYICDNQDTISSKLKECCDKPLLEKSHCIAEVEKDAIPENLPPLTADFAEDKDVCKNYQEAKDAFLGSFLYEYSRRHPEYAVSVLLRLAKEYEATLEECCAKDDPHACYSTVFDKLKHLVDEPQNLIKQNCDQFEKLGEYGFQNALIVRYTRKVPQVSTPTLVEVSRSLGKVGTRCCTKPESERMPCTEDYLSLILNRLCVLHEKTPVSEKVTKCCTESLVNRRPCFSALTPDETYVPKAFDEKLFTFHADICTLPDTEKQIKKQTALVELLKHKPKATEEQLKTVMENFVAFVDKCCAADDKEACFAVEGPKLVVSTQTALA
Method: as §2, §3

[3] = tested on: live MCF-7 cells (human breast cancer cells); assay: Imaging of live MCF-7 cells stained with compound by confocal laser scanning microscopy; type: cell-based; settings: 30 min at 37° C., excitation Cy5 channel (633 nm)
Method: (§4) FIG. 6A is the white light image of live MCF-7 cells (human breast cancer cells) stained with compound A, 6B is the fluorescence image of live MCF-7 cells stained with compound A. The concentration of compound A is 2 μM. The equipment used is a confocal laser scanning microscope (TCS-SP2). Excitation channel: Cy5 (633 nm).
as §4, with “FIG. 7A” for “FIG. 6A”, “compound D, 7B” for “compound A, 6B”, “compound D.” for “compound A.”, “compound D” for “compound A”, “is 1.5” for “is 2”
as §4, with “FIG. 8A” for “FIG. 6A”, “compound E, and 8B” for “compound A, 6B”, “compound E.” for “compound A.”, “compound E” for “compound A”, “is 3” for “is 2”
The equipment used is a confocal laser scanning microscope (TCS-SP2). Excitation channel: Cy5 (633 nm).
(§5) MCF-7 cells are cultured in DEME (Invitrogen) supplemented with 10% FBS (Invitrogen). One day before imaging, cells are seeded in 24-well flat-bottomed plates. The next day, the live cells were incubated with 2 μM of compound A for 30 min at 37° C. under 5% CO2 and then washed with phosphate-buffered saline (PBS) three times, and then the fluorescence imaging was observed under confocal laser scanning microscopy with a 100× objective lens (excited with Cy5 channel). 1000× magnification was utilized in the imaging. The scale bar represents 20 μm. […] The equipment used is a confocal laser scanning microscope (TCS-SP2). Excitation channel: Cy5 (633 nm). The concentration of compound A is 2 μM.
as §5, with “with 1.5” for “with 2”, “compound D” for “compound A”, “(TCS-SP2). […]” for “(TCS-SP2). Excitation channel: Cy5 (633 nm). The concentration of compound A is 2 μM.”
MCF-7 cells are cultured in DEME (Invitrogen) supplemented with 10% FBS (Invitrogen). […] The next day, the live cells were incubated with 3 μM of compound E for 30 min at 37° C. under 5% CO2 and then washed with phosphate-buffered saline (PBS) three times, and then the fluorescence imaging was observed under confocal laser scanning microscopy with a 100× objective lens (excited with Cy5 channel). […]

In the case of `CCN(CC)CCCC[n+]1c(/C=C/C=C2\C=CN(CC)c3ccccc32)sc2ccccc21.[I-]` [compound A], the “fluorescence increase upon binding to calf thymus DNA (I/I0)” value (“fluorescence increase upon binding” for short) (calf thymus DNA [1]; pH 7.36, 10 mM Tris-HCl buffer) is reported as 55 fold, the “fluorescence intensity increase upon binding to calf thymus DNA” value (calf thymus DNA [2]) is reported as 45.5 fold and the “fluorescence intensity increase with BSA solution” value (bovine serum albumin) is reported as 1.4 fold. The “staining pattern of live MCF-7 cells (fluorescence image)” value (shortened to “staining pattern of live MCF-7 cells”) ([3]; 2 μM) was “nucleus selective staining”.
`NCCNCCC[n+]1c(/C=C/C=C2\C=CN(CCO)c3ccccc32)sc2ccccc21` [compound C] was tested, and the “fluorescence increase upon binding” value (calf thymus DNA [1]; pH 7.24, 10 mM Tris-HCl buffer) was 75 fold.
With `CCN1C=C/C(=C\C=C\c2sc3ccccc3[n+]2CC)c2ccccc21` [M1, reference compound] the “fluorescence intensity increase upon binding to calf thymus DNA” value (calf thymus DNA [2]) was 40 fold and the “staining pattern of live MCF-7 cells” value ([3]; 2 μM) was “simultaneously nucleus and cytoplasm staining”.
For `CC1(C)C(/C=C/C=C2\C=CN(Cc3ccccc3)c3ccccc32)=[N+](CCCNc2ccccc2)c2ccc(Cl)cc21.[Br-]` [compound D], the “staining pattern of live MCF-7 cells” value ([3]; 1.5 μM) was “nucleus selective staining”.
In the case of `COc1ccc2c(c1)oc(/C=C/C=C1\C=CN(CCCN3CCCCC3)c3ccccc31)[n+]2CCCN1CCCCC1.[Br-]` [compound B], the “fluorescence increase upon binding” value (calf thymus DNA [1]; pH 7.4, 10 mM Tris-HCl buffer) is reported as 89 fold.
`CCCNCC[n+]1c(/C=C/C=C2\C=CN(CCCl)c3cc(C)ccc32)[se]c2ccccc21.[Br-]` [compound E] was tested, and the “staining pattern of live MCF-7 cells” value ([3]; 3 μM) was “nucleus selective staining”.

From patent US8298766B2, “Fluorescent dyes, methods of synthesis and applications thereof” (priority 2010, dated 2012)
